According to patent US5102786A, “Biological diagnostic assay system” (PB Diagnostic Systems, Inc., priority 1987, dated 1992):

Experiments:
[1] = target: Human Serum Albumin (HSA) (Homo sapiens, UniProt P02768); test: Displacement of sulforhodamine 101 from human serum albumin (Centricon 30 filtration, absorbance 586 nm); format: binding
Protocol: Two sets of aqueous solutions, 1.05×10^-5 M in sulforhodamine 101, were prepared in HEPES buffer with varying amounts of HSA.

plasma proteins [2] = test: Displacement of a theophylline-rhodamine conjugate from plasma proteins (Centricon 30 filtration, 500-600 nm); format: binding, human; settings: 0.2% PNS
Text: The solutions were centrifuged through a Centricon 30 filter at 5000 g and the filtrates were scanned on a Perkin Elmer λ9 Spectrophotometer at 500-600 nm.

HSA [3] = target: T1, HSA (Homo sapiens, UniProt P02768); test: Displacement of fluorescein from HSA (Centricon 30 filtration, 490 nm)
Protocol: (§1) Experiments were carried out with fluorescein and a fluorescein-theophylline conjugate, respectively, dissolved in HEPES buffer and containing various amounts of HSA. […] The solutions were centrifuged through a Centricon 30 filter at 5000 g and the filtrates were scanned at 490 nm.

HSA [4] = target: T1, HSA; test: Displacement of a fluorescein-theophylline conjugate from HSA (Centricon 30 filtration, 490 nm); format: binding; parameters: CONJUGATE (free conjugate in filtrate): unit not given here; settings: 0.2% PNS
Protocol: as §1

plasma proteins [5] = target: T2, plasma proteins (Homo sapiens, UniProt P02768); test: in vitro; format: binding
T2 construct: Experiments were conducted with a set of plasma solutions in HEPES buffer; from tissue; host or cells: plasma
Protocol: Experiments were conducted with a set of plasma solutions in HEPES buffer containing ^14 C-labeled phenytoin (9.3×10^-5 M) and varying amounts of PNS.

B-phycoerythrin = test: Fluorescent emission of B-phycoerythrin as a function of PNS and ANS
Protocol: (§2) The fluorescent emissions of B- and R-phycoerythrin were studied as a function of PNS and 8-anilino-1-naphthalene sulfonic acid (ANS). The experiments were conducted with solutions of the phycoerythrin (1.7×10^-10 M) in HEPES buffer containing varying amounts of PNS and ANS. The phycoerythrins were excited at 560 nm and their emissions measured at 575 nm.

R-phycoerythrin = test: Fluorescent emission of R-phycoerythrin as a function of PNS and ANS
Protocol: as §2

[6] = Solubility of PNS in water; format: physicochemical
plasma proteins [7] = test: Displacement of phenobarbital from plasma protein (filtration through Centricon PM 10, scintillation counting)
[8] = as above; settings: human, plasma
[9] = 0.125% PNS or ANS, excited at 560 nm, emission 575 nm, HEPES buffer

Human Serum Albumin (HSA), sequence (P02768 25-609): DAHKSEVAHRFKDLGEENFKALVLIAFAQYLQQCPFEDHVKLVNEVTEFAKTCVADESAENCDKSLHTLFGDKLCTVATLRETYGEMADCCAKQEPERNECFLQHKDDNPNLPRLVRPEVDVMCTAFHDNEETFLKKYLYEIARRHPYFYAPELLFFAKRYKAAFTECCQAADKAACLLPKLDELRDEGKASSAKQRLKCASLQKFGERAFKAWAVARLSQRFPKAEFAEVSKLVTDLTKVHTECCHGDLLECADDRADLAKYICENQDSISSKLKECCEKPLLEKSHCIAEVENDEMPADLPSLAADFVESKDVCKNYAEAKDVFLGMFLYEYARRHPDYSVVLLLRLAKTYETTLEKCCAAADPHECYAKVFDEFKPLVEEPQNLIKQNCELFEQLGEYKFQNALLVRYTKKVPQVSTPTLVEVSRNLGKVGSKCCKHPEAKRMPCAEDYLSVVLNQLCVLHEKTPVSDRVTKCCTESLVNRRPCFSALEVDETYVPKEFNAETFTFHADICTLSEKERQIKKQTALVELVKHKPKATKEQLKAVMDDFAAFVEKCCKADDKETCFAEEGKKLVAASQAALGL
T1 sequence (P02768 25-609): as above
T2 sequence (P02768 25-609): as above

Structure (SMILES): O=S(=O)(O)c1cccc2cccc(Oc3ccccc3)c12 [PNS, 1-phenoxynaphthalene-8-sulfonic acid]
- providing free sulforhodamine 101 (in words) ([1]; 0.2% PNS): very effective in providing free sulforhodamine 101
- % SULFORHODAMINE 101 (PASSED THROUGH FILTER) ([1]; 0.2% PNS, 0% HSA): 100%
- % SULFORHODAMINE 101 (PASSED THROUGH FILTER) ([1]; 0.2% PNS, 0.032% HSA): 99%
- % SULFORHODAMINE 101 (PASSED THROUGH FILTER) ([1]; 0.2% PNS, 0.064% HSA): 94%
- % SULFORHODAMINE 101 (PASSED THROUGH FILTER) ([1]; 0.2% PNS, 0.13% HSA): 88%
- % SULFORHODAMINE 101 (PASSED THROUGH FILTER) ([1]; 0.2% PNS, 0.16% HSA): 83%
- % SULFORHODAMINE 101 (PASSED THROUGH FILTER) ([1]; 0.2% PNS, 0.32% HSA): 68%
- % SULFORHODAMINE 101 (PASSED THROUGH FILTER) ([1]; 0.2% PNS, 0.48% HSA): 61%
- % CONJUGATE (free conjugate in the filtrate) (plasma proteins [2]; 0% plasma): 100%
- % CONJUGATE (free conjugate in the filtrate) (plasma proteins [2]; 20% plasma): 94%
- % CONJUGATE (free conjugate in the filtrate) (plasma proteins [2]; 40% plasma): 88%
- % CONJUGATE (free conjugate in the filtrate) (plasma proteins [2]; 60% plasma): 87%
- % CONJUGATE (free conjugate in the filtrate) (plasma proteins [2]; 75% plasma): 89%
- % CONJUGATE (free conjugate in the filtrate) (plasma proteins [2]; 90% plasma): 88%
- providing free conjugate (in words) (plasma proteins [2]; human plasma): very effective in providing free conjugate
- providing free dye (in words) (HSA [3]; 0.2% PNS): effective in providing free dye and free conjugate
- DYE (free dye in filtrate) (HSA [3]; 0.2% PNS, 0% HSA): 100
- DYE (free dye in filtrate) (HSA [3]; 0.2% PNS, 0.075% HSA): 99
- DYE (free dye in filtrate) (HSA [3]; 0.2% PNS, 0.15% HSA): 97
- DYE (free dye in filtrate) (HSA [3]; 0.2% PNS, 0.3% HSA): 98
- DYE (free dye in filtrate) (HSA [3]; 0.2% PNS, 0.6% HSA): 93
- DYE (free dye in filtrate) (HSA [3]; 0.2% PNS, 0.9% HSA): 92
- DYE (free dye in filtrate) (HSA [3]; 0.2% PNS, 1.2% HSA): 89
- DYE (free dye in filtrate) (HSA [3]; 0.2% PNS, 1.5% HSA): 88
- providing free conjugate (in words) (HSA [4]): effective in providing free dye and free conjugate
- CONJUGATE (free conjugate in filtrate) (HSA [4]; 0% HSA): 100
- CONJUGATE (free conjugate in filtrate) (HSA [4]; 0.075% HSA): 93
- CONJUGATE (free conjugate in filtrate) (HSA [4]; 0.15% HSA): 87
- CONJUGATE (free conjugate in filtrate) (HSA [4]; 0.3% HSA): 87
- CONJUGATE (free conjugate in filtrate) (HSA [4]; 0.6% HSA): 82
- CONJUGATE (free conjugate in filtrate) (HSA [4]; 0.9% HSA): 76
- CONJUGATE (free conjugate in filtrate) (HSA [4]; 1.2% HSA): 72
- CONJUGATE (free conjugate in filtrate) (HSA [4]; 1.5% HSA): 69
- % Phenytoin (±3) passed through filter (plasma proteins [5]; 0.1% PNS): 97.5%
- providing free phenytoin (in words) (plasma proteins [5]; 0.1-0.5% PNS): very effective in providing free phenytoin
- % Phenytoin (±3) passed through filter (plasma proteins [5]; 0.2% PNS): 98.6%
- % Phenytoin (±3) passed through filter (plasma proteins [5]; 0.3% PNS): 98.7%
- % Phenytoin (±3) passed through filter (plasma proteins [5]; 0.4% PNS): 98.6%
- % Phenytoin (±3) passed through filter (plasma proteins [5]; 0.5% PNS): 96.7%
- B-phycoerythrin rel. fl. intensity in the presence of PNS or ANS (B-phycoerythrin; [9]): 1.0
- effect on fluorescence emission of B-phycoerythrin in solution (in words) (B-phycoerythrin; 0.125-0.50% agent): does not affect the fluorescence emissions
- B-phycoerythrin rel. fl. intensity in the presence of PNS or ANS (B-phycoerythrin; 0.25% PNS or ANS): 1.0
- B-phycoerythrin rel. fl. intensity in the presence of PNS or ANS (B-phycoerythrin; 0.375% PNS or ANS): 1.0
- B-phycoerythrin rel. fl. intensity in the presence of PNS or ANS (B-phycoerythrin; 0.50% PNS or ANS): 1.0
- R-phycoerythrin rel. fl. intensity in the presence of PNS or ANS (R-phycoerythrin; [9]): 1.0
- effect on fluorescence emission of R-phycoerythrin in solution (in words) (R-phycoerythrin; 0.125-0.50% agent): does not affect the fluorescence emissions
- R-phycoerythrin rel. fl. intensity in the presence of PNS or ANS (R-phycoerythrin; 0.25% PNS or ANS): 0.99
- R-phycoerythrin rel. fl. intensity in the presence of PNS or ANS (R-phycoerythrin; 0.375% PNS or ANS): 0.99
- R-phycoerythrin rel. fl. intensity in the presence of PNS or ANS (R-phycoerythrin; 0.50% PNS or ANS): 0.98
- solubility in water ([6]; pH range of interest (above 3, preferably 6 to 8)): soluble in water at the required concentrations
- solubility in water ([6]; very low pH, below pH 3): precipitate from solution
- % PHENOBARBITAL (±3%) (passed through filter) (plasma proteins [7]; 0.02% PNS in human plasma): 62.7%
- % PHENOBARBITAL (±3%) (passed through filter) (plasma proteins [7]; 0.05% PNS in human plasma): 71.1%
- % PHENOBARBITAL (±3%) (passed through filter) (plasma proteins [7]; 0.2% PNS in human plasma): 93.0%
- % PHENOBARBITAL (±3%) (passed through filter) (plasma proteins [7]; 0.5% PNS in human plasma): 97.0%
- dissociation of phenobarbital from plasma proteins (in words) (plasma proteins [7]; human, plasma): effective to dissociate phenobarbital from the plasma proteins

Structure (SMILES): CCC1(c2ccccc2)C(=O)NC(=O)NC1=O [phenobarbital, reference compound]
- fraction unbound [8]: ~0.55
- fraction unbound at 1 h [8]: 0.555

Structure (SMILES): O=S(=O)([O-])c1cc(S(=O)(=O)O)ccc1C1=c2cc3c4c(c2Oc2c1cc1c5c2CCCN5CCC1)CCC[N+]=4CCC3 [sulforhodamine 101, reference compound]
- % SULFORHODAMINE 101 (PASSED THROUGH FILTER) ([1]; CONTROL (no PNS), 0% HSA, HEPES buffer, 10.5 µM): 100%
- % SULFORHODAMINE 101 (PASSED THROUGH FILTER) ([1]; CONTROL (no PNS), 0.032% HSA, 10.5 µM): 83%
- % SULFORHODAMINE 101 (PASSED THROUGH FILTER) ([1]; CONTROL (no PNS), 0.064% HSA, 10.5 µM): 50%
- % SULFORHODAMINE 101 (PASSED THROUGH FILTER) ([1]; CONTROL (no PNS), 0.13% HSA, 10.5 µM): 32%
- % SULFORHODAMINE 101 (PASSED THROUGH FILTER) ([1]; CONTROL (no PNS), 0.16% HSA, 10.5 µM): 23%
- % SULFORHODAMINE 101 (PASSED THROUGH FILTER) ([1]; CONTROL (no PNS), 0.32% HSA, 10.5 µM): 10%
- % SULFORHODAMINE 101 (PASSED THROUGH FILTER) ([1]; CONTROL (no PNS), 0.48% HSA, 10.5 µM): 6%

Structure (SMILES): O=C1OC2(c3ccc(O)cc3Oc3cc(O)ccc32)c2ccccc21 [fluorescein, reference compound]
- DYE (free dye in filtrate) (HSA [3]; CONTROL (no PNS), 0% HSA, HEPES buffer): 100
- DYE (free dye in filtrate) (HSA [3]; CONTROL (no PNS), 0.075% HSA): 83
- DYE (free dye in filtrate) (HSA [3]; CONTROL (no PNS), 0.15% HSA): 69
- DYE (free dye in filtrate) (HSA [3]; CONTROL (no PNS), 0.3% HSA): 52
- DYE (free dye in filtrate) (HSA [3]; CONTROL (no PNS), 0.5% HSA): 40
- DYE (free dye in filtrate) (HSA [3]; CONTROL (no PNS), 0.6% HSA): 35
- DYE (free dye in filtrate) (HSA [3]; CONTROL (no PNS), 1.0% HSA): 24
- DYE (free dye in filtrate) (HSA [3]; CONTROL (no PNS), 1.2% HSA): 20
- DYE (free dye in filtrate) (HSA [3]; CONTROL (no PNS), 1.5% HSA): 17
